Measurements as given in patent publication US5091419A, “Diurea derivatives useful as medicaments and processes for the preparation thereof” (Yamanouchi Pharmaceutical Co., Ltd., priority 1988, dated 1992).

Biological target: acyl CoA: cholesterol acyltransferase (ACAT)
Assay: Inhibiting activity against ACAT activity of rabbit's liver microsome
Type: biochemical
Settings: rabbit's liver microsome enzyme fraction, 1-14C-oleoyl CoA, 37° C.; read-out: Inhibiting activity against ACAT activity: IC (M) 50%
Procedure: Inhibiting activity against acyl CoA: cholesterol acyltransferase (ACAT) activity of rabbit's liver microsome According to Heider's method [J. G. Heider et al., J. of Lipid Res. Vol. 24, 1127-34 (1983)], rabbit's liver microsome was treated to obtain enzyme fraction. To 0.154M of phosphoric acid buffer solution (pH 7.4), 2 mM of dithiothreitol, 36 μM of bovine serum albumin and 10 to 100 μg of microsome fraction, liposome prepared by Suckling's method [K. E. […] Then, 36 μM oleoyl CoA containing 1-^14 C-oleoyl CoA was added and the whole mixture was heated for 10 minutes at the temperature of 37° C. The reaction was ceased by adding chloroform/methanol (=2/1). Upon stirring, cholesterol oleate extracted into chloroform layer was separated by thin layer chromatography and the radioactivity was then determined as ACAT activity.

IC50: 1.8e-08 M
SMILES: O=C(Nc1ccc(F)cc1F)N(Cc1cccc(CN(C(=O)Nc2ccc(F)cc2F)C2CCCCCC2)c1)C1CCCCCC1 [Example 1, 1,3-bis[[1-cycloheptyl-3-(2,4-difluorophenyl)ureido]methyl]benzene]
